{"source": "patent US20040258754A1", "about": "“Compositions for oral administration of camptothecin and its analogs” (priority 2003, published 2004)", "key": {"[1]": {"details": "for Relative Peak Area: 37° C."}, "[2]": {"assay": "Loading (uptake) of drugs into Pluronic-PAA microgels", "type": "physicochemical", "details": "1 wt % microgel suspension pH 7.0", "experimental": "The beads were used in order to enhance the area of contact between the microgel suspension and drug. The beads were separated into several fractions. One fraction was added to a polypropylene vial containing the microgel suspension (0.5 mL) and the vial was gently shaken in a horizontal position in an environmental chamber at 20 or 37° C. Then the beads were recovered from the suspension by using a magnet. The beads were dried under vacuum and placed into an appropriate solvent (0.5 mL), where the solute was extracted after shaking overnight. The solvent fraction was assayed for the solute concentration using HPLC. The control fraction of loaded beads was subjected to the extraction without equilibration with the microgel suspension. The solute concentrations were measured in triplicate using the HPLC system described above. […] The peak area was integrated and used to calculate camptothecin concentration using standard calibration curves."}, "[3]": {"target": "human serum albumin (HSA) (Homo sapiens, UniProt P02768)", "sequence (P02768 25-609)": "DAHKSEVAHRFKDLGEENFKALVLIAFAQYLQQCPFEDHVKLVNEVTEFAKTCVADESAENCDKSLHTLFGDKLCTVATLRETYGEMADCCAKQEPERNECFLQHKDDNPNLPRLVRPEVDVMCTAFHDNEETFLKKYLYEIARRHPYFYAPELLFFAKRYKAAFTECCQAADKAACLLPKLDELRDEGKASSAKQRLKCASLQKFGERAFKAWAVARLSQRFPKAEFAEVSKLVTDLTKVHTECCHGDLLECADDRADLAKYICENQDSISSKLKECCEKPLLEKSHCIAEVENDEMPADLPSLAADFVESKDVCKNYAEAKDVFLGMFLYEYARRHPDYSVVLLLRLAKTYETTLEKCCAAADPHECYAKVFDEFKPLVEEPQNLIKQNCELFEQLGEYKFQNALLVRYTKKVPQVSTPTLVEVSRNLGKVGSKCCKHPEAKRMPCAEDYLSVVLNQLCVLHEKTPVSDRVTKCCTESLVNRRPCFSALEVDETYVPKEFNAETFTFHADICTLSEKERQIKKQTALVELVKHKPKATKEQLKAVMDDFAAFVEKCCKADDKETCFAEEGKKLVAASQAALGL", "details": "pH 7.4; cited from earlier work"}, "[4]": {"details": "cited from earlier work"}, "[5]": {"assay": "Solubility of camptothecin in formulations with Pluronic P85", "type": "physicochemical", "details": "aqueous with cosolvent or surfactant or cyclodextrin, thermodynamic from solid, read-out: Camptothecin concentration (solubility)", "experimental": "Calibration. Fluorescence of 0.300 mL samples of camptothecin solutions in methanol containing between 0.00003 and 0.0005 mg/mL, in triplicates on Helma Quarz plate, was measured using Bio-Tek FL600 fluorescence plate reader with excitation filter wavelength/bandwidth 360/40 nm and emission filter 530/25 nm, sensitivity 70. The average fluorescence was fitted to a linear equation and gave: […]\nwhere C—camptothecin concentration [mg/mL].\nSolubility. 0.1 mg camptothecin samples, in triplicates, and 1 mL of the respective buffer or carrier solution, were incubated at room temperature with shaking for 1 hour. The samples were then filtered through Acrodisc CR, PTFE Syringe filter, 4 mm diameter, 0.45 μm pore size Gelman part No. 4472. The filtrate was diluted 100 times with methanol, and the final concentration of camptothecin was determined by fluorescence measurement using the above-described calibration."}, "[6]": {"details": "CPT-11 in human serum Without Gel, exposure 10 min"}, "[7]": {"details": "CPT-11 loaded in Pluronic-PAA-EGDMA gel (F127-PAA) in human serum, exposure 1 h"}}, "note": "Read-outs that look alike come from different tables or passages of the source."}
{"smiles": "CCc1c2c(nc3ccc(OC(=O)N4CCC(NCCCCC(=O)O)CC4)cc13)-c1cc3c(c(=O)n1C2)COC(=O)[C@]3(O)CC", "note": "[APC-L]", "values": [{"measurement": "Relative Peak Area", "setting": "[1]; [6]", "result": 0.778}, {"measurement": "Relative Peak Area", "setting": "[1]; [7]", "result": "not detected"}]}
{"smiles": "CCc1c2c(nc3ccc(OC(=O)N4CCC(N5CCCCC5)CC4)cc13)-c1cc3c(c(=O)n1C2)COC(=O)[C@]3(O)CC", "note": "[CPT-11, irinotecan]", "values": [{"measurement": "metabolism in human serum without encapsulation into gels", "setting": "[1]; male, human, 15 min, 0.013 mg/mL", "result": "a substantial portion of CPT-11 was metabolised"}]}
{"smiles": "CC[C@@]1(O)C(=O)OCc2c1cc1n(c2=O)Cc2cc3ccccc3nc2-1", "note": "[Camptothecin]", "values": [{"measurement": "Uptake ± S.D.", "setting": "[2]; F127-based gel, 20° C.", "result": "13.4 ± 1.54 (20° C.) μmol/g gel"}, {"measurement": "Uptake ± S.D.", "setting": "[2]; F127-based gel, 37° C.", "result": "16.3 ± 1.86 (37° C.) μmol/g gel"}, {"measurement": "Uptake ± S.D.", "setting": "[2]; L92-based gel, 20° C.", "result": "16.2 ± 1.87 (20° C.) μmol/g gel"}, {"measurement": "Uptake ± S.D.", "setting": "[2]; L92-based gel, 37° C.", "result": "19.5 ± 2.33 (37° C.) μmol/g gel"}, {"measurement": "higher affinity of HSA for the carboxylate form than for the alpha-hydroxy lactone form", "setting": "[3]", "result": 150, "unit": "fold"}, {"measurement": "Log P", "setting": "[4]", "result": 0.87}, {"measurement": "solubility at 1 h", "setting": "[5]; 1% Pluronic P85 in PBS, P85 1% in PBS pH 7.2, room temperature", "result": "3.1 ± 1.5", "unit": "µg/mL"}, {"measurement": "solubility at 1 h", "setting": "[5]; 3% Pluronic P85 in PBS, P85 3% in PBS pH 7.2, room temperature", "result": "4.9 ± 1.5", "unit": "µg/mL"}]}
{"smiles": "CCc1c2c(nc3ccc(O)cc13)-c1cc3c(c(=O)n1C2)COC(=O)[C@]3(O)CC", "note": "[SN28-L]", "values": [{"measurement": "Relative Peak Area", "setting": "[1]; [6]", "result": 1.30}, {"measurement": "Relative Peak Area", "setting": "[1]; [7]", "result": "not detected"}]}
{"smiles": "CCc1c2c(nc3ccc(O)cc13)-c1cc(C(O)(CC)C(=O)O)c(CO)c(=O)n1C2", "note": "(centres unmarked) [SN28-c]", "values": [{"measurement": "Relative Peak Area", "setting": "[1]; [6]", "result": 1.18}, {"measurement": "Relative Peak Area", "setting": "[1]; [7]", "result": "not detected"}]}
{"smiles": "CC(=O)O[C@H]1C(=O)[C@@]2(C)[C@H]([C@H](OC(=O)c3ccccc3)[C@]3(O)C[C@H](OC(=O)[C@H](O)[C@@H](NC(=O)c4ccccc4)c4ccccc4)C(C)=C1C3(C)C)[C@]1(OC(C)=O)CO[C@@H]1C[C@@H]2O", "note": "[Taxol]", "values": [{"measurement": "Uptake ± S.D.", "setting": "[2]; F127-based gel, 20° C.", "result": "2.27 ± 0.90 (20° C.) μmol/g gel"}, {"measurement": "Uptake ± S.D.", "setting": "[2]; F127-based gel, 37° C.", "result": "6.97 ± 0.87 (37° C.) μmol/g gel"}, {"measurement": "Uptake ± S.D.", "setting": "[2]; L92-based gel, 20° C.", "result": "3.65 ± 0.43 (20° C.) μmol/g gel"}, {"measurement": "Uptake ± S.D.", "setting": "[2]; L92-based gel, 37° C.", "result": "7.25 ± 0.74 (37° C.) μmol/g gel"}]}
{"smiles": "C[C@]12CC[C@@H]3c4ccc(O)cc4CC[C@H]3[C@@H]1CC[C@@H]2O", "note": "[β-Estradiol]", "values": [{"measurement": "Log P", "setting": "[4]", "result": 3.86}]}
